This is an account of results in patent US11236106B2, “Cycloalkane-1,3-diamine derivative” (Daiichi Sankyo Company, Limited, priority 2018, dated 2022).

Structures can show the parent of a compound that is named as a salt. Where two headings read alike, the source gives them in different places.

By GI50 is commonly meant the concentration that inhibits growth by half. Usually IC50 stands for the concentration that inhibits the measured activity by half. A low value points to greater potency.

For test [1], the system named is MV-4-11 cells. Description: Antitumor activity in MV-4-11 cell subcutaneous transplant model (Experimental Example 3-2). It counts as in vivo, mice. The conditions noted are these: Exp. Ex. 3-2, oral, 34 days after transplantation. The method, then: MV-4-11 cells were purchased from ATCC. The female FOX CHASE SCID C.B.17/Icr-scid/scidJcl mice were purchased from Claire Japan. […] The compound was administered as a suspension in 0.5% MC. For the compound-free group, 0.5% MC was administered as a solvent. The estimated individual tumor volume was measured from the day of the grouping to 34 days after the transplantation (test end date).
(§1) Tumor growth inhibitory rate %=(1−TVCt/TVCc)×100 TVC=(Individual tumor volume on the test end date)−(Individual tumor volume on the grouping date) TVCt: TVC mean value of the compound administration group TVCc: TVC mean value of the compound-free group

Test [2] deals with MLL-AF9-overexpressing AML-like cells (MA9 cells). In words: Differentiation-inducing activity in MLL-AF9-overexpressing AML-like cells (flow cytometry of Gr-1 and cKit). It counts as cell-based, mouse. The settings on record: 7 days, 5 or 20 nM (Ex. 25, 27), 150 or 300 nM (Ex. 26), 50 or 100 nM (Ex. 22). How it is done: The human MLL-AF9 fusion gene was introduced into cKit-positive mononuclear cells isolated from the myeloid of C57BL6 mouse, by retrovirus infection. MLL-AF9-overexpressing AML-like cells (MA9 cells) that acquired abnormal growth ability were established by liquid-culturing the cells after virus infection for a long period of time. Serum-free medium (GlutaMax, P/S, Stem Pro-34 medium containing 10 ng/ml mIL-3, ng/mL mSCF and 10 ng/mL human Oncostatin M) was used as a culture medium.
For the control group, DMSO was added thereto at a final concentration of 0.1% (2 μL/well) (day 0). After culturing for 7 days (day 7), the cells were collected, and blocked with 5% FBS/PBS containing 10% Mouse BD Fc Block (BD) for 10 minutes at room temperature, and then any of various antibodies (Gr-1-FITC or CD117 (cKit)-APC: Biolegend) was added thereto at a final concentration of 0.4 μg/sample, and the mixture was reacted on ice for 30 minutes. Then, dead cell staining dye DAPI (0.2 mg/mL) was added thereto at so as to be […], and the reaction was carried out on ice for additional 2 minutes under shading. Then, the expression level of each surface antigen of the cells was measured by NovoCyte flow cytometer (LMS). The obtained data were analyzed by FlowJo software (Becton Dickinson), and the rate of each surface antigen-expressing cells in the living cells excluding dead cells was graphed.
(In flow cytometry, cells or beads pass a laser one at a time.)

Test [3] relates to MV-4-11 cells. Description: Cell growth inhibitory activity, MV-4-11 cells (Experimental Example 7, 96-well). The settings on record: Homo sapiens, MV4-11, 168 h, day 7, Sigmoid Emax model. The format is cell-based. How it is done:
(§2) A solution of each concentration (MV-4-11 and MOLM-13: common ratio of 3, 9 concentrations from the final concentration of 1 μM, K562: common ratio of 3, 9 concentrations from the final concentration of 10 μM) of a drug (the compound of Example 131) or a growth medium containing 0.2% DMSO was added to each well at 50 μL/well, and the cells were cultured for additional 7 days.

Test [4] has as its system MOLM-13 cells. Description: Cell growth inhibitory activity, MOLM-13 cells (Experimental Example 7, 96-well). It counts as cell-based. The conditions noted are these: Homo sapiens, 168 h, day 7, Sigmoid Emax model. How it is done: as §2
The test system of test [5] is K562 cells. In words: Cell growth inhibitory activity, K562 cells (Experimental Example 7, 96-well). The conditions noted are these: Homo sapiens, 168 h, day 7, linear regression. It counts as cell-based. The method, then: as §2
Test [6] has as its system K562 cells. Description: cells. The settings on record: Homo sapiens, K562, 168 h, read-out: GI50, cell growth inhibitory activity, K562, day 7.
Protocol: (§3) RPMI1640 medium supplemented with 10% FBS was used as a culture medium for each cells (MV-4-11, MOLM-13 cells, human AML cells, K562 cells, human CML cells). […] The prepared drug-containing plate was stored at −30° C. until use, and thawed before use.
(§4) The suspension of each cells was prepared with 10% FBS RPMI1640 culture medium so as to be 1000 cells/mL (K562) or 10000 cells/mL (MV-4-11, MOLM-13), and seeded on the drug-containing plate (40 μL/well) (day 0). The cells were cultured for additional 3 or 7 days. ATP measurement reagent (CellTiter-Glo (registered trademark, Promega Corporation) 2.0 Assay, model number G9242, Promega Corporation) was added to each well at 10 μL/well, on the day of the drug addition (day 0) and 3 days (day 3) or 7 days (day 7) after the drug addition. After affixing a black sticker on the bottom surface, the mixture was stirred using a microplate mixing deaeration machine (model name, Weltornado FK-62, Sakaki Dengyo Co., Ltd.) (stirring conditions, revolution 9, rotation 7, time 12).
(§5) The cell growth of the drug-added group from day 0 to day 3 or day 7 was calculated as T/C %, when the cell growth of the drug-free group was considered as 100%.
In test [7] the test system is MV-4-11 cells. In words: cells. The conditions noted are these: Homo sapiens, MV4-11, 168 h, read-out: GI50, cell growth inhibitory activity, MV-4-11, day 7.
Protocol: as §3, §4, §5
Test [8] relates to OCI-AML3 cells. In words: cells. The settings on record: Homo sapiens, OCI-AML-3, 168 h, read-out: GI50 (nM) Day 7.
Protocol: The cells were purchased from Deutsche Sammlung von Mikroorganismen und Zellkulturen GmbH (DSMZ). […] The prepared drug-containing plate was stored at −30° C. until use, and thawed before use.
The suspension of the cells was prepared with 10% FBS RPMI1640 culture medium so as to be 50000 cells/mL, and seeded on the drug-containing plate (40 μL/well) (day 0). The cells were cultured for additional 7 days. ATP measurement reagent (CellTiter-Glo (registered trademark, Promega Corporation) 2.0 Assay, model number G9242, Promega Corporation) was added to each well at 10 μL/well, on the day of the drug addition (day 0) and 7 days (day 7) after the drug addition. After affixing a black sticker on the bottom surface, the mixture was stirred using a microplate mixing deaeration machine (model name, Weltornado FK-62, Sakaki Dengyo Co., Ltd.) (stirring conditions, revolution 9, rotation 7, time 12).
The cell growth of the drug-added group from day 0 to day 7 was calculated as T/C %, when the cell growth of the drug-free group was considered as 100%. GI5o was calculated by GROWTH function (exponential regression) using two concentrations sandwiching the concentration (T/C %=50%) that suppresses cell growth by 50%, and T/C %.
Test [9] deals with T1, menin and MLL (menin, Flag tagged; biotinylated MLL1 peptide 1-46aa) (Homo sapiens, UniProt O00255).
T1 sequence (O00255 1-610): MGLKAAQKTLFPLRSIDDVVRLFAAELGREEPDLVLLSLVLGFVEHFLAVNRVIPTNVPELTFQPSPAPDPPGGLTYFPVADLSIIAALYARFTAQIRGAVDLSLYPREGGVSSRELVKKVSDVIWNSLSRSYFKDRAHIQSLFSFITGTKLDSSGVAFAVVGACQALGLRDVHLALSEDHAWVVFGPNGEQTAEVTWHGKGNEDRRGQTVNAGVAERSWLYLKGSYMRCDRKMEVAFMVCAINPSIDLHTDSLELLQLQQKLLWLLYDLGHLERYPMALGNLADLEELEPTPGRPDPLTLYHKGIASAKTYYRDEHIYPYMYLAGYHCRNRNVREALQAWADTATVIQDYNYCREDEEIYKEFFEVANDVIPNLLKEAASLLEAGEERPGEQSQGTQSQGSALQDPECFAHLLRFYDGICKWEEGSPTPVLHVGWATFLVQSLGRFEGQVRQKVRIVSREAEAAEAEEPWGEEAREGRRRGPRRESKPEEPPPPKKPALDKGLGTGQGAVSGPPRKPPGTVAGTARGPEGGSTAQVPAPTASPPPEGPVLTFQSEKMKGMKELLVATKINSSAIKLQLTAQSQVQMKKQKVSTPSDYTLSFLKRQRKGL
In words: biochemical. The settings on record: AlphaLISA, 1 nM menin, 10 nM biotinylated MLL1 peptide.
Protocol: Then, the fluorescence signal by AlphaLISA (registered trademark, PerkinElmer Co., Ltd.) was measured using a plate reader (PerkinElmer Co., Ltd., EnVisionXcite).

Test [10] has as its system MV-4-11 cells. The settings on record: read-out: GI50, cell growth inhibitory activity, MV-4-11, day 7, cultured 7 days, assigned by order and values, Hydrochloride.
Protocol: as §3, §4, §5
The test system of test [11] is MV-4-11 cells. In words: Antitumor activity in MV-4-11 cell subcutaneous transplant model (Experimental Example 3-4). The settings on record: Exp. Ex. 3-4, oral, 32 days after transplantation. The format is in vivo, mice. The method, then:
MV-4-11 cells were purchased from ATCC. The female FOX CHASE SCID C.B.17/Icr-scid/scidJcl mice were purchased from Claire Japan. […] The compound was administered as a suspension in 0.5% MC. For the compound-free group, 0.5% MC was administered as a solvent. The estimated individual tumor volume was measured from the day of the grouping to 32 days after the transplantation (test end date).
as §1

For test [12], the system named is K562 cells. The settings on record: read-out: GI50, cell growth inhibitory activity, K562, day 7, cultured 7 days, assigned by order and values.
Protocol: as §3, §4, §5
The mark [13] stands for this setting: IC50, binding inhibitory activity between menin and MLL.

For `COc1cc(-c2ccc(CN[C@H]3C[C@@H](O)[C@@H](N(C)c4ncnc5sc(CC(F)(F)F)cc45)C3)cc2)nnc1OC` [Example 25, (1R,2S,4R)-4-({[4-(5,6-dimethoxypyridazin-3-yl)phenyl]methyl}amino)-2-{methyl[6-(2,2,2-trifluoroethyl)thieno[2,3-d]pyrimidin-4-yl]amino}cyclopentan-1-ol Hydrochloride], the “Estimated tumor volume (test end date) Mean ± S.E.” value (from here on “Estimated tumor volume”) in test [1] (qdx18, 25 mg/kg/day) is reported as 250 ± 38; in [1] (qdx18, 50 mg/kg/day), 0 ± 0; in [1] (qdx18, 100 mg/kg/day) it was 0 ± 0. Further, the “rate of the myeloid cell differentiation antigen Gr-1-expressing cells in living cells” value in [2] (versus control group (FIG. 10)) is “increased the rate of Gr-1-positive cells”. In test [2] (versus control group (FIG. 11)), the “rate of the cKit-expressing cells in living cells” value is reported as “reduced the rate of cKit-positive cells”.

As to `COc1cc(-c2ccc(CN[C@H]3C[C@@H](O)[C@@H](N(C)c4ncnc5sc(CC(F)(F)F)cc45)C3)cc2)nnc1OC` [Example 131, (1R,2S,4R)-4-({[4-(5,6-dimethoxypyridazin-3-yl)phenyl]methyl}amino)-2-{methyl[6-(2,2,2-trifluoroethyl)thieno[2,3-d]pyrimidin-4-yl]amino}cyclopentan-1-ol Succinate], the GI50 in test [3] came to 1.97 nM; in test [4], 10.1 nM; in test [5] it was 9110 nM.

For the compound `COc1nc(N(C)[C@H]2C[C@@H](NCc3ccc(-c4cc(OC)c(OC(F)F)nn4)cc3)C[C@H]2O)c2cc(CC(F)(F)F)sc2n1` [Example 119, (1R,2S,4R)-4-[({4-[6-(difluoromethoxy)-5-methoxypyridazin-3-yl]phenyl}methy)amino]-2-{[2-methoxy-6-(2,2,2-trifluoroethyl)thieno[2,3-d]pyrimidin-4-yl](methyl)amino}cyclopentan-1-ol hydrochloride], the GI50 worked out at 859 nM in test [6], 15.7 nM in test [7] and 33 nM in test [8]. Besides, the IC50 in [9] (setting [13]) came out at 0.7 nM.

Take `COc1nc(N(C)C2CC(NCC3CCC(c4cc(OC)c(OC)nn4)CC3)CC2O)c2cc(CC(F)(F)F)sc2n1` (single isomer, unassigned) [Example 128A, Hydrochloride]: the GI50 in test [10] is 728 nM; in test [6] it was above 5000 nM. For the same compound, the IC50 in test [9] (setting [13]) worked out at 18.4 nM.

For `COc1cc(-c2ccc(CN[C@H]3C[C@@H](O)[C@@H](N(C)c4ncnc5sc(CC(F)(F)F)cc45)C3)cc2)cnc1OC.Cl` [Example 67, (1R,2S,4R)-4-({[4-(5,6-dimethoxypyridin-3-yl)phenyl]methyl}amino)-2-{methyl[6-(2,2,2-trifluoroethyl)thieno[2,3-d]pyrimidin-4-yl]amino}cyclopentan-1-ol hydrochloride], the “Estimated tumor volume” value in [11] (qdx16, 25 mg/kg/day) is given as 896 ± 56; in test [11] (qdx16, 50 mg/kg/day), 381 ± 59; in [11] (qdx16, 100 mg/kg/day), 0 ± 0. Besides, the IC50 in test [9] (setting [13]) amounted to 2.1 nM.

Regarding `COc1cc(-c2ccc(CN[C@H]3C[C@@H](O)[C@@H](N(C)c4ncnc5sc(CC(F)(F)F)cc45)C3)cc2)cnc1C.Cl` [Example 60, (1R,2S,4R)-4-({[4-(5-methoxy-6-methylpyridin-3-yl)phenyl]methyl}amino)-2-{methyl[6-(2,2,2-trifluoroethyl)thieno[2,3-d]pyrimidin-4-yl]amino}cyclopentan-1-ol hydrochloride], the “Estimated tumor volume” value in test [11] (qdx16, 25 mg/kg/day) was 558 ± 79; in test [11] (qdx16, 50 mg/kg/day), 25 ± 11; in test [11] (qdx16, 100 mg/kg/day), 0 ± 0. In [9] (cell free IC50 (nM)), this compound registered an IC50 of 2.4 nM.

Turning to `COc1nc(N(C)C2CC(NCC3CCC(c4cc(OC)c(OC)nn4)CC3)CC2O)c2cc(CC(F)(F)F)sc2n1` (single isomer, unassigned) [Example 128B, Hydrochloride], the GI50 in [12] is above 5000 nM. The compound also yielded a half-maximal inhibitory concentration (IC50) in [9] (setting [13]) of 6.6 nM.
